Source: patent publication US20220315578A1, “BRD9 BIFUNCTIONAL DEGRADERS AND THEIR METHODS OF USE” (NOVARTIS AG, priority 2019, published 2022)

Biological target: T1, BRD9-GFP (Homo sapiens, UniProt Q9H8M2)
T1 construct: CHYSEL (2A cis-acting hydrolase element) remnant after GFP; mCherry is split off as a separate protein (C); expressed in transfected cells; host or cells: HEK293A cells (Invitrogen R70507), lentiviral transduction with pLenti6-BRD9-GFP-CHYSEL-mCherry, blasticidin selection
T1 sequence (Q9H8M2 1-597): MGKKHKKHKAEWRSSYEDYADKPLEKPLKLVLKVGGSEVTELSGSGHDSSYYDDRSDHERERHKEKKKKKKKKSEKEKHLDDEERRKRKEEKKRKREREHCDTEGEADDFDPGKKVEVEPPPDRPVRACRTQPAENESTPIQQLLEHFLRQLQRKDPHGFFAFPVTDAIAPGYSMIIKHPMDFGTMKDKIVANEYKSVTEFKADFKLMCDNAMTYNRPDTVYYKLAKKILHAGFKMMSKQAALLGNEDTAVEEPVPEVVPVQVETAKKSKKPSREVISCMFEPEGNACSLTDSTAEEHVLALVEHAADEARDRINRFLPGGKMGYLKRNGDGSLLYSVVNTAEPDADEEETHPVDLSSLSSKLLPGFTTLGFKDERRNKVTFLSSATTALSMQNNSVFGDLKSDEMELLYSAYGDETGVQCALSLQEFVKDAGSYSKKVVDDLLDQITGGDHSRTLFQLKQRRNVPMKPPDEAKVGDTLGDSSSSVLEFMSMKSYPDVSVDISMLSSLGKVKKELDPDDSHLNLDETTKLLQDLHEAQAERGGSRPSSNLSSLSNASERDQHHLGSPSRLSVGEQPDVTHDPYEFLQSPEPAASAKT
Test: BRD9-GFP protein abundance flow cytometry assay in HEK293A cells
Assay type: cell-based
Settings: HEK293A-BRD9-GFP-CHYSEL-mCherry cells; for BRD9 Deg Amax %: 24 h, % protein remaining at the concentration at which maximum degradation is seen; for DC50: 24 h at 37° C., 10-point 1:3 dilution, concentration at which 50% maximal degradation was observed
Outline: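 HEK293A cells stably express bicistronic BRD9-GFP-CHYSEL-mCherry and received 24 h treatment at 37° C with a 10-point, 3-fold dilution series from […], in 0.1% DMSO and duplicate. Median GFP/mCherry ratio of 5,000 single cells by flow cytometry, normalized to mCherry-only cells (0%) and DMSO (100%), gave DC50 and Amax (% protein remaining).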

BRD9 Deg Amax %	DC50	Structure (SMILES)
13.77%	9 nM	Cn1cc(-c2ccc(CN3CCC(OC4CCN(CCn5cccc(CN6CCC(=O)NC6=O)c5=O)CC4)CC3)cc2)c2ccncc2c1=O [Compound E37, 1-((1-(2-(4-((1-(4-(2-methyl-1-oxo-1,2-dihydro-2,7-naphthyridin-4-yl)benzyl)piperidin-4-yl)oxy)piperidin-1-yl)ethyl)-2-oxo-1,2-dihydropyridin-3-yl)methyl)dihydropyrimidine-2,4(1H,3H)-dione]
14.60%	4 nM	COc1cc(-c2cn(C)c(=O)c3cnccc23)c(OC)cc1CN1CC[C@@H](OC2CCN(CCn3cccc(CN4CCC(=O)NC4=O)c3=O)CC2)[C@H](F)C1 [Compound E39, 1-((1-(2-(4-(((3R,4R)-1-(2,5-Dimethoxy-4-(2-methyl-1-oxo-1,2-dihydro-2,7-naphthyridin-4-yl)benzyl)-3-fluoropiperidin-4-yl)oxy)piperidin-1-yl)ethyl)-2-oxo-1,2-dihydropyridin-3-yl)methyl)dihydropyrimidine-2,4(1H,3H)-dione]
10.51%	29 nM	CCCCCCn1cc(-c2cc(OC)c(CN3CCC(OC4CCN(C(=O)c5ccc(OC)c(N6CCC(=O)NC6=O)c5)CC4)CC3)c(OC)c2)c2ccncc2c1=O [Compound E40, 1-(5-(4-((1-(4-(2-Hexyl-1-oxo-1,2-dihydro-2,7-naphthyridin-4-yl)-2,6-dimethoxybenzyl)piperidin-4-yl)oxy)piperidine-1-carbonyl)-2-methoxyphenyl)dihydropyrimidine-2,4(1H,3H)-dione]
17.34%	4 nM	CCCCn1cc(-c2ccc(OC3CCN(CC4CCN(C(=O)c5ccc(OC)c(N6CCC(=O)NC6=O)c5)CC4)CC3)cc2)c2ccncc2c1=O [Compound E42, 1-(5-(4-((4-(4-(2-butyl-1-oxo-1,2-dihydro-2,7-naphthyridin-4-yl)phenoxy)piperidin-1-yl)methyl)piperidine-1-carbonyl)-2-methoxyphenyl)dihydropyrimidine-2,4(1H,3H)-dione]
17.45%	3 nM	CCCCn1cc(-c2ccc(OC3CCN(CC4CCN(C(=O)c5ccc(OC)c(N6CCC(=O)NC6=O)c5)CC4)CC3)c(Cl)c2)c2ccncc2c1=O [Compound E43, 1-(5-(4-((4-(4-(2-butyl-1-oxo-1,2-dihydro-2,7-naphthyridin-4-yl)-2-chlorophenoxy)piperidin-1-yl)methyl)piperidine-1-carbonyl)-2-methoxyphenyl)dihydropyrimidine-2,4(1H,3H)-dione]
15.28%	7 nM	CCCCn1cc(-c2cc(F)c(CN3CCC(OC4CCN(C(=O)COc5ccc(C)c(N6CCC(=O)NC6=O)c5)CC4)CC3)c(F)c2)c2ccncc2c1=O [Compound E45, 1-(5-(2-(4-((1-(4-(2-butyl-1-oxo-1,2-dihydro-2,7-naphthyridin-4-yl)-2,6-difluorobenzyl)piperidin-4-yl)oxy)piperidin-1-yl)-2-oxoethoxy)-2-methylphenyl)dihydropyrimidine-2,4(1H,3H)-dione]
15.69%	33 nM	COc1cc(-c2cn(C)c(=O)c3cnccc23)c(OC)cc1CN1CCC(OC2CCN(C(=O)COc3ccc(N4CCC(=O)NC4=O)cc3)CC2)CC1 [Compound E46, 1-(4-(2-(4-((1-(2,5-dimethoxy-4-(2-methyl-1-oxo-1,2-dihydro-2,7-naphthyridin-4-yl)benzyl)piperidin-4-yl)oxy)piperidin-1-yl)-2-oxoethoxy)phenyl)dihydropyrimidine-2,4(1H,3H)-dione]
32.89%	49 nM	CCCCn1cc(-c2cc(OC)c(CCN3CC[C@@H](OC4CCN(C(=O)c5ccc(Cl)c(N6CCC(=O)NC6=O)c5)CC4)[C@H](F)C3)cc2OC)c2ccncc2c1=O [Compound E47, 1-(5-(4-(((3R,4R)-1-(4-(2-butyl-1-oxo-1,2-dihydro-2,7-naphthyridin-4-yl)-2,5-dimethoxyphenethyl)-3-fluoropiperidin-4-yl)oxy)piperidine-1-carbonyl)-2-chlorophenyl)dihydro-pyrimidine-2,4(1H,3H)-dione]
15.41%	2 nM	CCCn1cc(-c2cc(OC)c(CCN3CCN(CC4CCN(C(=O)c5ccc(Cl)c(N6CCC(=O)NC6=O)c5)CC4)CC3)c(OC)c2)c(C)c(C)c1=O [Compound E48, 1-(2-chloro-5-(4-((4-(4-(4,5-dimethyl-6-oxo-1-propyl-1,6-dihydropyridin-3-yl)-2,6-dimethoxyphenethyl)piperazin-1-yl)methyl)piperidine-1-carbonyl)phenyl)dihydropyrimidine-2,4(1H,3H)-dione]
19.41%	7 nM	CCCCn1cc(-c2cc(F)c(OC3CCN(CC4CCN(C(=O)c5ccc(OC)c(N6CCC(=O)NC6=O)c5)CC4)CC3)c(F)c2)c2ccncc2c1=O [Compound E49, 1-(5-(4-((4-(4-(2-butyl-1-oxo-1,2-dihydro-2,7-naphthyridin-4-yl)-2,6-difluorophenoxy)piperidin-1-yl)methyl)piperidine-1-carbonyl)-2-methoxyphenyl)dihydropyrimidine-2,4(1H,3H)-dione]
13.47%	8 nM	CCCCn1cc(-c2cc(OC)c(CCN3CCC(OC4CCN(C(=O)c5ccc(OC)c(N6CCC(=O)NC6=O)c5)CC4)CC3)c(OC)c2)c2ccncc2c1=O [Compound E50, 1-(5-(4-((1-(4-(2-butyl-1-oxo-1,2-dihydro-2,7-naphthyridin-4-yl)-2,6-dimethoxyphenethyl)-piperidin-4-yl)oxy)piperidine-1-carbonyl)-2-meth-oxyphenyl)dihydro-pyrimidine-2,4(1H,3H)-dione]
11.66%	7 nM	CCCCn1cc(-c2cc(F)c(CN3CCC(OC4CCN(C(=O)c5ccc(OC)c(N6CCC(=O)NC6=O)c5)CC4)CC3)c(OC)c2)c2ccncc2c1=O [Compound E51, 1-(5-(4-((1-(4-(2-butyl-1-oxo-1,2-dihydro-2,7-naphthyridin-4-yl)-2-fluoro-6-methoxybenzyl)-piperidin-4-yl)oxy)piperidine-1-carbonyl)-2-meth-oxyphenyl)dihydro-pyrimidine-2,4(1H,3H)-dione]
14.99%	4 nM	CCCn1cc(-c2cc(F)c(CCN3CCC(OC4CCN(C(=O)c5ccc(Cl)c(N6CCC(=O)NC6=O)c5)CC4)CC3)c(OC)c2)c(C)c(C)c1=O [Compound E52, 1-(2-Chloro-5-(4-((1-(4-(4,5-dimethyl-6-oxo-1-propyl-1,6-dihydropyridin-3-yl)-2-fluoro-6-methoxyphenethyl)piperidin-4-yl)oxy)piperidine-1-carbonyl)phenyl)dihydropyrimidine-2,4(1H,3H)-dione]
16.11%	4 nM	CCCCn1cc(-c2cc(F)c(CCN3CCC(OC4CCN(C(=O)c5ccc(Cl)c(N6CCC(=O)NC6=O)c5)CC4)CC3)c(OC)c2)c2ccncc2c1=O [Compound E53, 1-(5-(4-((1-(4-(2-butyl-1-oxo-1,2-dihydro-2,7-naphthyridin-4-yl)-2-fluoro-6-methoxyphenethyl)-piperidin-4-yl)oxy)piperidine-1-carbonyl)-2-chlorophenyl)dihydro-pyrimidine-2,4(1H,3H)-dione]
18.33%	4 nM	CCCCn1cc(-c2ccc(CN3CCC(OC4CCN(C(=O)c5ccc(OC)c(N6CCC(=O)NC6=O)c5)CC4)CC3)c(F)c2)c2ccncc2c1=O [Compound E54, 1-(5-(4-((1-(4-(2-butyl-1-oxo-1,2-dihydro-2,7-naphthyridin-4-yl)-2-fluorobenzyl)piperidin-4-yl)oxy)piperidine-1-carbonyl)-2-methoxyphenyl)dihydropyrimidine-2,4(1H,3H)-dione]
18.12%	5 nM	CCCn1cc(-c2cc(OC)c(CCN3CC[C@@H](OC4CCN(C(=O)c5ccc(Cl)c(N6CCC(=O)NC6=O)c5)CC4)[C@H](F)C3)c(OC)c2)c(C)c(C)c1=O [Compound E55, 1-(2-chloro-5-(4-(((3R,4R)-1-(4-(4,5-dimethyl-6-oxo-1-propyl-1,6-dihydropyridin-3-yl)-2,6-dimethoxyphenethyl)-3-fluoropiperidin-4-yl)oxy)piperidine-1-carbonyl)phenyl)dihydropyrimidine-2,4(1H,3H)-dione]
19.65%	1 nM	CCCCn1cc(-c2cc(F)c(O[C@@H]3CCN(CC4CCN(C(=O)c5ccc(OC)c(N6CCC(=O)NC6=O)c5)CC4)C[C@H]3F)c(F)c2)c2ccncc2c1=O [Compound E56, 1-(5-(4-(((3R,4R)-4-(4-(2-butyl-1-oxo-1,2-dihydro-2,7-naphthyridin-4-yl)-2,6-difluorophenoxy)-3-fluoropiperidin-1-yl)methyl)piperidine-1-carbonyl)-2-methoxyphenyl)dihydropyrimidine-2,4(1H,3H)-dione]
